The subject of series [1] is recombinant NL4-3 virus (Renilla luciferase reporter) in MT-2 cells. Briefly: HIV cell culture assay (antiviral activity, luciferase readout in infected MT-2 cells). It is filed as cell-based. The settings on record: NL43. As to the method: HIV cell culture assay—MT-2 cells, 293T cells and the proviral DNA clone of NL4-3 virus were obtained from the NIH AIDS Research and Reference Reagent Program. MT-2 cells were propagated in RPMI 1640 media supplemented with 10% heat inactivated fetal bovine serum (FBS), […]. The 293T cells were propagated in DMEM media supplemented with 10% heat inactivated FBS, […]. A recombinant NL4-3 proviral clone, in which a section of the nef gene was replaced with the Renilla luciferase gene, was used to make the reference virus used in these studies. The recombinant virus was prepared through transfection of the recombinant NL4-3 proviral clone into 293T cells using Transit-293 Transfection Reagent from Mirus Bio LLC (Madison, Wis.). Supernatent was harvested after 2-3 days and the amount of virus present was titered in MT-2 cells using luciferase enzyme activity as a marker by measuring luciferase enzyme activity. Luciferase was quantitated using the EnduRen Live Cell Substrate from Promega (Madison, Wis.). Antiviral activities of compounds toward the recombinant virus were quantified by measuring luciferase activity in MT-2 cells infected for 4-5 days with the recombinant virus in the presence of serial dilutions of the compound.
The 50% effective concentration (EC50) was calculated by using the exponential form of the median effect equation where (Fa)=1/[1+(EC50/drug conc.)m] (Johnson V A, Byington RT. Infectivity Assay. In Techniques in HIV Research, ed. Aldovini A, Walker B D. 71-76. New York: Stockton Press. 1990). The 50% inhibitory concentration (EC50) was calculated by using the exponential form of the median effect equation where percent inhibition=1/[1+(EC50/drug concentration)m], where m is a parameter that reflects the slope of the concentration-response curve.

The nature of series [2]: Compound cytotoxicity, XTT-based colorimetric assay. It is filed as cell-based. The settings on record: human; uninfected MT2 cells, day 4, XTT; read-out: CC50. As to the method:
Compound cytotoxicity and the corresponding CC50 values were determined using the same protocol as described in the antiviral assay except that uninfected cells were used. Cytotoxicity was assessed on day 4 in uninfected MT2 cells by using a XTT (2,3-bis [2-Methoxy-4-nitro-5-sulfophenyl]-2H-tetrazolium-5-carboxyanilide inner salt)-based colorimetric assay (Sigma-Aldrich, St Louis, Mo.).
A general note: Tetrazolium dyes change colour on reduction, which living cells bring about.

This is an account of results in patent US20210395248A1, “INHIBITORS OF HUMAN IMMUNODEFICIENCY VIRUS REPLICATION” (ViiV HEALTHCARE UK (NO.5) LIMITED, priority 2018, published 2021).

Some results are limits rather than exact numbers.

A word on the EC50: it is the concentration needed to bring the measured effect to its halfway point. The CC50 is the concentration that lowers cell viability or growth by half.

As to `CN(CCC(F)(F)F)c1ccc2c(=O)n(-c3ccc(Cl)c4c(NS(C)(=O)=O)nn(C)c34)c([C@H](Cc3cc(F)cc(F)c3)NC(=O)Cn3nc(C(F)F)c4c3C(F)(F)[C@@H]3C[C@H]43)nc2n1` (atropisomer, axis not shown; (P)) [Example 30, N—((S)-1-((3P)-3-(4-chloro-1-methyl-3-(methylsulfonamido)-1H-indazol-7-yl)-7-(methyl(3,3,3-trifluoropropyl)amino)-4-oxo-3,4-dihydropyrido[2,3-d]pyrimidin-2-yl)-2-(3,5-difluorophenyl)ethyl)-2-((3bS,4aR)-3-(difluoromethyl)-5,5-difluoro-3b,4,4a,5-tetrahydro-1H-cyclopropa[3,4]cyclopenta[1,2-c]pyrazol-1-yl)acetamide], in series [1], the EC50 stood at 32 pM. For the same compound, the CC50 at 4 days in series [2] is greater than 100000 pM.

`C[C@@H]1CN(c2ccc3c(=O)n(-c4ccc(Cl)c5c(NS(C)(=O)=O)nn(C)c45)c([C@H](Cc4cc(F)cc(F)c4)NC(=O)Cn4ccc(C5CC5)n4)nc3n2)C[C@H](C)O1` (atropisomer, axis not shown; (P)) [Example 16, N—((S)-1-((3P)-3-(4-chloro-1-methyl-3-(methylsulfonamido)-1H-indazol-7-yl)-7-((2S,6R)-2,6-dimethylmorpholino)-4-oxo-3,4-dihydropyrido[2,3-d]pyrimidin-2-yl)-2-(3,5-difluorophenyl)ethyl)-2-(3-cyclopropyl-1H-pyrazol-1-yl)acetamide]: in series [1], the EC50 came to 200 pM. In addition, the CC50 at 4 days in series [2] was greater than 500000 pM.

For the compound `C[C@@H]1CN(c2ccc3c(=O)n(-c4ccc(Cl)c5c(NS(C)(=O)=O)nn(C)c45)c([C@H](Cc4cc(F)cc(F)c4)NC(=O)Cc4ccn(C5CC5)n4)nc3n2)C[C@H](C)O1` (atropisomer, axis not shown; (P)) [Example 15, N—((S)-1-((3P)-3-(4-chloro-1-methyl-3-(methylsulfonamido)-1H-indazol-7-yl)-7-((2S,6R)-2,6-dimethylmorpholino)-4-oxo-3,4-dihydropyrido[2,3-d]pyrimidin-2-yl)-2-(3,5-difluorophenyl)ethyl)-2-(1-cyclopropyl-1H-pyrazol-3-yl)acetamide], in series [1], the EC50 came out at 110 pM. Further, the CC50 at 4 days in series [2] was greater than 100000 pM.

For `Cn1nc(NS(C)(=O)=O)c2c(Cl)ccc(-n3c([C@H](Cc4cc(F)cc(F)c4)NC(=O)Cn4nc(C(F)F)c5c4C(F)(F)[C@@H]4C[C@H]54)nc4nc(NCCC(F)F)ccc4c3=O)c21` (atropisomer, axis not shown; (P)) [Example 34, N—((S)-1-((3P)-3-(4-chloro-1-methyl-3-(methylsulfonamido)-1H-indazol-7-yl)-7-((3,3-difluoropropyl)amino)-4-oxo-3,4-dihydropyrido[2,3-d]pyrimidin-2-yl)-2-(3,5-difluorophenyl)ethyl)-2-((3bS,4aR)-3-(difluoromethyl)-5,5-difluoro-3b,4,4a,5-tetrahydro-1H-cyclopropa[3,4]cyclopenta[1,2-c]pyrazol-1-yl)acetamide], the concentration giving a half-maximal response (EC50) in series [1] worked out at 55 pM. In series [2], the CC50 at 4 days was greater than 100000 pM.

For `C[C@@H]1CN(c2ccc3c(=O)n(-c4ccc(Cl)c5c(NS(=O)(=O)C6CC6)nn(CC(F)F)c45)c([C@H](Cc4cc(F)cc(F)c4)NC(=O)Cn4nc(C(F)F)c5c4C(F)(F)[C@@H]4C[C@H]54)nc3n2)C[C@H](C)O1` (atropisomer, axis not shown; (aR)) [Example 5, N—((S)-1-(3-(4-chloro-3-(cyclopropanesulfonamido)-1-(2,2-difluoroethyl)-1H-indazol-7-yl)-7-((2S,6R)-2,6-dimethylmorpholino)-4-oxo-3,4-dihydropyrido[2,3-d]pyrimidin-2-yl)-2-(3,5-difluorophenyl)ethyl)-2-((3bS,4aR)-3-(difluoromethyl)-5,5-difluoro-3b,4,4a,5-tetrahydro-1H-cyclopropa[3,4]cyclopenta[1,2-c]pyrazol-1-yl)acetamide], the EC50 in series [1] is 30 pM. Also, the CC50 at 4 days in series [2] was greater than 500000 pM.

For the compound `Cn1nc(NS(C)(=O)=O)c2c(Cl)ccc(-n3c([C@H](Cc4cc(F)cc(F)c4)NC(=O)Cn4nc(C(F)F)c5c4C(F)(F)[C@@H]4C[C@H]54)nc4nc(NCCC(C)(F)F)ccc4c3=O)c21` (atropisomer, axis not shown; (P)) [Example 25, N—((S)-1-((3P)-3-(4-chloro-1-methyl-3-(methylsulfonamido)-1H-indazol-7-yl)-7-((3,3-difluorobutyl)amino)-4-oxo-3,4-dihydropyrido[2,3-d]pyrimidin-2-yl)-2-(3,5-difluorophenyl)ethyl)-2-((3bS,4aR)-3-(difluoromethyl)-5,5-difluoro-3b,4,4a,5-tetrahydro-1H-cyclopropa[3,4]cyclopenta[1,2-c]pyrazol-1-yl)acetamide], the EC50 in series [1] was found to be 37 pM. The cytotoxic concentration (CC50) at 4 days in series [2] was greater than 100000 pM.

For the compound `C[C@@H]1CN(c2ccc3c(=O)n(-c4ccc(Cl)c5c(NS(C)(=O)=O)nn(C)c45)c([C@H](Cc4cc(F)cc(F)c4)NC(=O)Cn4nc(C(F)(F)F)c5c4C(F)(F)[C@@H]4C[C@H]54)nc3n2)C[C@H](C)O1` (atropisomer, axis not shown; (aR)) [Example 2, N—((S)-1-(3-(4-chloro-1-methyl-3-(methylsulfonamido)-1H-indazol-7-yl)-7-((2S,6R)-2,6-dimethylmorpholino)-4-oxo-3,4-dihydropyrido[2,3-d]pyrimidin-2-yl)-2-(3,5-difluorophenyl)ethyl)-2-((3bS,4aR)-5,5-difluoro-3-(trifluoromethyl)-3b,4,4a,5-tetrahydro-1H-cyclopropa[3,4]cyclopenta[1,2-c]pyrazol-1-yl)acetamide], the EC50 in series [1] is 36 pM. In addition, the CC50 at 4 days in series [2] was greater than 500000 pM.

Turning to `Cn1nc(NS(C)(=O)=O)c2c(Cl)ccc(-n3c([C@H](Cc4cc(F)cc(F)c4)NC(=O)Cn4nc(C(F)F)c5c4C(F)(F)[C@@H]4C[C@H]54)nc4nc(NCCCF)ccc4c3=O)c21` (atropisomer, axis not shown; (P)) [Example 35, N—((S)-1-((3P)-3-(4-chloro-1-methyl-3-(methylsulfonamido)-1H-indazol-7-yl)-7-((3-fluoropropyl)amino)-4-oxo-3,4-dihydropyrido[2,3-d]pyrimidin-2-yl)-2-(3,5-difluorophenyl)ethyl)-2-((3bS,4aR)-3-(difluoromethyl)-5,5-difluoro-3b,4,4a,5-tetrahydro-1H-cyclopropa[3,4]cyclopenta[1,2-c]pyrazol-1-yl)acetamide], in series [1], the EC50 came to 110 pM. The CC50 at 4 days in series [2] was greater than 100000 pM.

`C[C@@H]1CN(c2ccc3c(=O)n(-c4ccc(Cl)c5c(NS(C)(=O)=O)nn(C)c45)c([C@H](Cc4cc(F)cc(F)c4)NC(=O)Cn4nc(C(F)F)c5c4C(F)(F)[C@@H]4C[C@H]54)nc3n2)C[C@H](C)O1` (atropisomer, axis not shown; (aR)) [Example 1, N—((S)-1-(3-(4-chloro-1-methyl-3-(methylsulfonamido)-1H-indazol-7-yl)-7-((2S,6R)-2,6-dimethylmorpholino)-4-oxo-3,4-dihydropyrido[2,3-d]pyrimidin-2-yl)-2-(3,5-difluorophenyl)ethyl)-2-((3bS,4aR)-3-(difluoromethyl)-5,5-difluoro-3b,4,4a,5-tetrahydro-1H-cyclopropa[3,4]cyclopenta[1,2-c]pyrazol-1-yl)acetamide]: the EC50 in series [1] was 41 pM. Further, in series [2], the CC50 at 4 days is greater than 500000 pM.
